According to patent US20090275610A1, “TRICYCLIC OPIOID MODULATORS” (priority 2005, published 2009):
Several values for one entry are separate records, joined by “and”; a condition that tells them apart may be missing. Identical values can stand only once. Like-named read-outs stand apart in the source and are kept apart here.

What was measured:
delta opioid receptor = molecular target: T1, delta opioid receptor (Rattus norvegicus, UniProt P33533); assay: Rat brain delta opioid receptor binding assay; details: rat forebrain membranes, [3H]DPDPE or [3H]naltrindole, 25° C., 2.5 h
T1 construct: the forebrains were homogenized in Tris buffer in a Teflon®-glass homogenizer; from tissue; host or cells: forebrain of male Wistar rats (particulate membrane preparation)
T1 sequence (P33533 whole entry): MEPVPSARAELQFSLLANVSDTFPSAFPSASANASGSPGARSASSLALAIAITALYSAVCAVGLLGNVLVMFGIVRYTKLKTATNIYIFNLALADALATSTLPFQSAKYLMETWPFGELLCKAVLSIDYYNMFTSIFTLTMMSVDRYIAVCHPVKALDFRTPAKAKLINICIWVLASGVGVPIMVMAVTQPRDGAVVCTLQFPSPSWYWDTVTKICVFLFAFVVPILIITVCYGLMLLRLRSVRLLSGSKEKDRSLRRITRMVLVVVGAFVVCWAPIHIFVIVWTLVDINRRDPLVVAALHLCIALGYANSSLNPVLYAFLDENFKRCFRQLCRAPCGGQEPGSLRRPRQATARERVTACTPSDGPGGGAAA
Description: Rat Brain Delta Opioid Receptor Binding Assay
(§1) Procedure: Male, Wistar rats (150-250 g, VAF, Charles River, Kingston, N.Y.) were killed by CO2, and their brains removed and placed immediately in ice cold Tris HCl buffer (50 mM, pH 7.4). The forebrains were separated from the remainder of the brain by a coronal transection, beginning dorsally at the colliculi and passing ventrally through the midbrain-pontine junction. After dissection, the forebrains were homogenized in Tris buffer in a Teflon®-glass homogenizer. The homogenate was diluted to a concentration of 1 g of forebrain tissue per 80 mL Tris and centrifuged at 39,000×g for 10 min. The pellet was resuspended in the same volume of Tris buffer containing 5 mM MgCl2 with several brief pulses from a Polytron homogenizer. This particulate preparation was used for the delta opioid binding assays.
(§2) Analysis: The data from the scintillation counter were used to calculate either the % inhibition compared to control binding (when only a single concentration of test compound was evaluated) or a Ki value (when a range of concentrations was tested). Percent inhibition was calculated as: [(total dpm−test compound dpm)/(total dpm−nonspecific dpm)]*100. Kd and Ki values were calculated using GraphPad PRISM data analysis program.

mu opioid receptor = molecular target: T2, mu opioid receptor (Rattus norvegicus, UniProt P33535); assay: Rat brain mu opioid receptor binding assay; details: rat forebrain membranes, [3H]DAMGO, 25° C., 2.5 h
T2 construct: the forebrains were homogenized in Tris buffer in a Teflon®-glass homogenizer; from tissue; host or cells: forebrain of male Wistar rats (particulate membrane preparation)
T2 sequence (P33535 whole entry): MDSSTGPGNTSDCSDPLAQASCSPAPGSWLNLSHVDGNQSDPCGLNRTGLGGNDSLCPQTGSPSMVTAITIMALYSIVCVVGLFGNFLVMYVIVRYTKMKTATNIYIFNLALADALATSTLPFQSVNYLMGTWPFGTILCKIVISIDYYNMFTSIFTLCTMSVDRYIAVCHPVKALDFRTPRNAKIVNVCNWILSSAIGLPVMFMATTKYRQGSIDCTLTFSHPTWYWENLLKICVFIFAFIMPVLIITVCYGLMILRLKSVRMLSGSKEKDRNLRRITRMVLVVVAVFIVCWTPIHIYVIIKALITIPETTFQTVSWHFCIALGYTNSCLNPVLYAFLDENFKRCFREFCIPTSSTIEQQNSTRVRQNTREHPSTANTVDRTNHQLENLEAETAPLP
Description: Rat Brain Mu Opioid Receptor Binding Assay
as §1
as §2, with “concentrations” for “concentrations was”

[1] = molecular target: T3, delta opioid receptor (NG108-15 cell membranes) (Mus musculus, UniProt P32300); assay: [35S]GTPγS binding assay in NG108-15 cell membranes (delta opioid); type: biochemical; details: for delta GTPγS binding Rel Eff: value in parentheses
T3 construct: NG108-15 cell membranes were purchased from Applied Cell Sciences (Rockville, Md.); host or cells: NG108-15 cell membranes (purchased)
T3 sequence (P32300 whole entry): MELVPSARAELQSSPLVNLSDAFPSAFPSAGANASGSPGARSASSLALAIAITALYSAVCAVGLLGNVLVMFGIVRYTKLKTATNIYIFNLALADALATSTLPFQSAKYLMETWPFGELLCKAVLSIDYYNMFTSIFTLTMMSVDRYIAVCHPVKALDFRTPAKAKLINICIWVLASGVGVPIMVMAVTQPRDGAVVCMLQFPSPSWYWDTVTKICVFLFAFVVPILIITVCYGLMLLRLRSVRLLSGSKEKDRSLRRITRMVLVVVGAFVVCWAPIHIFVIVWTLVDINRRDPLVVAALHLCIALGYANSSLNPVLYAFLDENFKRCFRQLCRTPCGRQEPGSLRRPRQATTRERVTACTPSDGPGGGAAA
Description: Functional Assay: [^35S]GTPγS Binding Assay in NG108-15 Cell Membranes (Delta Opioid)
Methods: NG108-15 cell membranes were purchased from Applied Cell Sciences (Rockville, Md.). A sample (8 mg/mL) of membrane protein suspended in 10 mM TRIS-HCl pH 7.2, 2 mM EDTA, 10% sucrose. Membranes were maintained at 4-8° C. A 1 mL volume of membranes was added into 10 mL cold binding assay buffer. The assay buffer contained 50 mM Tris, pH 7.6, 5 mM MgCl2, 100 mM NaCl, 1 mM DTT and 1 mM EGTA. The membrane suspension was homogenized twice with a Polytron, and centrifuged at 3000 rpm for 10 min. The supernatant was then centrifuged at 18,000 rpm for 20 min. Ten mL assay buffer was added into the pellet containing tube. The pellet and buffer were mixed with a Polytron.
Incubation procedure: The pellet membranes (75 μg/mL) were preincubated with SPA (10 mg/mL) at 25° C. for 45 min in the assay buffer. The SPA (5 mg/mL) coupled with membranes (37.5 μg/mL) was then incubated with 0.1 nM [^35S]GTPγS in the same Tris buffer containing 100 μM GDP in total volume of 200 μL. Increasing concentrations of receptor agonists were used to stimulate [^35S]-GTPγS binding. The basal binding was tested in the absence of agonists and non-specific binding was tested in the presence of 10 μM unlabeled GTPγS. The data were analyzed on a Packard Top Count.
% of Basal=(stimulated−non specific)*100/(basal−non specific).
(§3) EC50 values were calculated using GraphPad Prism.

[2] = molecular target: T4, hMOR (CHO-hMOR cell membranes) (Homo sapiens, UniProt P35372); assay: [35S]GTPγS binding assay in CHO-hMOR cell membranes; type: biochemical; details: for mu GTPγS binding Rel Eff: value in parentheses
T4 construct: host or cells: CHO cells expressing hMOR (purchased membranes)
T4 sequence (P35372 whole entry): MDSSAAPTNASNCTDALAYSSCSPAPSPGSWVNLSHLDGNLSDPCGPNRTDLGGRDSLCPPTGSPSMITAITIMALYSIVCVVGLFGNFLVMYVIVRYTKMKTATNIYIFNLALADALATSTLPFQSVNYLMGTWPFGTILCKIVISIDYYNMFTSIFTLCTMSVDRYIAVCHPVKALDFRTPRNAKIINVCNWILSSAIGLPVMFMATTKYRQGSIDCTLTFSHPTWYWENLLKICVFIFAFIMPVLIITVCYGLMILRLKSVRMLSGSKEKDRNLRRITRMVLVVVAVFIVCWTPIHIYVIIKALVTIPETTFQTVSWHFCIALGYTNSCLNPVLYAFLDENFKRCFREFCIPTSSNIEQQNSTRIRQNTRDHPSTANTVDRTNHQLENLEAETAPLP
Description: Functional Assay: [^35S]GTPγS Binding Assays in CHO-hMOR Cell Membranes
Methods: CHO-hMOR cell membranes were purchased from Receptor Biology, Inc. (Baltimore, Md.). About 10 mg/mL of membrane protein was suspended in 10 mM TRIS-HCl pH 7.2, 2 mM EDTA, 10% sucrose, and the suspension kept on ice. A 1 mL volume of membranes was added to 15 mL cold binding assay buffer containing 50 mM HEPES, pH 7.6, 5 mM MgCl2, 100 mM NaCl, 1 mM DTT and 1 mM EDTA. The membrane suspension was homogenized with a Polytron and centrifuged at 3,000 rpm for 10 min. The supernatant was then centrifuged at 18,000 rpm for 20 min. The pellet was resuspended in 10 mL assay buffer with a Polytron. The membranes were preincubated with wheat germ agglutinin coated SPA beads (Amersham) at 25° C. for 45 min in the assay buffer. The SPA bead (5 mg/mL) coupled membranes (10 μg/mL) were then incubated with 0.5 nM [^35S]GTPγS in the assay buffer. […] A range of concentrations of receptor agonist was used to stimulate [^35S]GTPγS binding. Both basal and non-specific binding was tested in the absence of agonist; non-specific binding determination included 10 μM unlabeled GTPγS.
Compounds were tested for function as antagonists by evaluating their potential to inhibit agonist-stimulated GTPγS binding. Radioactivity was quantified on a Packard TopCount. The following parameters were calculated:
as §3

[3] = read-out: rDOR (Ki, nM): Rat delta opioid receptor binding constant
[4] = read-out: rMOR (Ki, nM): Rat mu opioid receptor binding constant
[5] = read-out: delta GTPγS binding EC50
[6] = CHO-hMOR cell membranes, read-out: mu GTPγS binding EC50
[7] = rDOR (Ki, nM): Rat delta opioid receptor binding constant
[8] = rMOR (Ki, nM): Rat mu opioid receptor binding constant

| Compound | Ki (delta opioid receptor; [3]) [nM] | Ki (mu opioid receptor; [4]) [nM] | EC50 [1, 5] [nM] | EC50 [2, 6] [nM] | Ki (delta opioid receptor; [7]) [nM] | Ki (mu opioid receptor; [8]) | EC50 ([1]; delta GTPγS binding EC50 (nM)) [nM] | delta GTPγS binding Rel Eff [1] | EC50 [2] [nM] | mu GTPγS binding Rel Eff ([2]; CHO-hMOR cell membranes) |
| --- | --- | --- | --- | --- | --- | --- | --- | --- | --- | --- |
| Oc1cccc2c1Oc1ccccc1C2=C1CC2CCC(C1)N2Cc1c[nH]c(-c2ccccc2)n1 [Cpd 28] | 192 | 58.5 | 1380 | > 10000 |  |  |  |  |  |  |
| Oc1cccc2c1Oc1ccccc1C2=C1CC2CCC(C1)N2 (racemic) [Cpd 2, 9-(8-Aza-bicyclo[3.2.1]oct-3-ylidene)-9H-xanthen-4-ol] |  |  |  |  | 0.48 | 7 nM | 50.9 | 0.67 | 382 | 0.37 |
| Oc1cc(CN2C3CCC2CC(=C2c4ccccc4Oc4c(O)cccc42)C3)ccn1 [Cpd 23] | 1.5 | 2.18 | 52.8 | 12400 |  |  |  |  |  |  |
| Oc1cccc2c1Oc1ccccc1C2=C1CC2CCC(C1)N2CC1CC1 [Cpd 26] | 5.43 | 65.9 | 194 | > 10000 |  |  |  |  |  |  |
| Oc1cccc2c1Oc1ccccc1C2=C1CC2CCC(C1)N2Cc1ccccn1 [Cpd 21, 9-(8-pyridin-2-ylmethyl-8-azabicyclo[3.2.1]oct-3-ylidene)-9H-xanthen-4-ol] |  |  |  |  | 0.007 | 0.1 nM | 21.8 |  | > 10000 |  |
| Oc1cccc2c1Oc1ccccc1C2=C1CC2CCC(C1)N2CCc1ccccc1 [Cpd 30] | 63.5 | 27.7 | 2960 | > 10000 |  |  |  |  |  |  |
| NC(=O)c1cccc2c1Oc1ccccc1C2=C1CC2CCC(C1)N2Cc1ccoc1 [Cpd 4, 9-(8-Furan-3-ylmethyl-8-azabicyclo[3.2.1]oct-3-ylidene)-9H-xanthene-4-carboxylic acid amide] |  |  | 9.4 | 4040 | 2.3 | 2.5 nM |  |  |  |  |
| O=C(NCCc1ccccc1)c1cccc2c1Oc1ccccc1C2=C1CC2CCC(C1)N2 [Cpd 14, 9-(8-Azabicyclo[3.2.1]oct-3-ylidene)-9H-xanthene-4-carboxylic acid phenethyl-amide] |  |  |  |  |  | 44 nM and 36.2 nM | 10.4 | 0.92 | 997 | 0.54 |
| Oc1cccc2c1Oc1ccccc1C2=C1CC2CCC(C1)N2Cc1ccoc1 [Cpd 25, 9-(8-Furan-3-ylmethyl-8-aza-bicyclo[3.2.1]oct-3-ylidene)-9H-xanthen-4-ol] |  |  |  |  | 0.26 | 0.56 nM | 1.08 |  | 2810 |  |
| Oc1cccc2c1Oc1ccccc1C2=C1CC2CCC(C1)N2Cc1ccncc1 [Cpd 22] | 0.97 | 358 | 2720 | > 10000 |  |  |  |  |  |  |
| NC(=O)c1cccc2c1Oc1ccccc1C2=C1CC2CCC(C1)N2 (single isomer, unassigned) [Cpd 39, 9-(8-Azabicyclo[3.2.1]oct-3-ylidene)-9H-xanthene-4-carboxylic acid amide] |  |  |  |  | 31.9 | 96.4 nM | 1240 |  |  |  |
| Oc1cccc2c1Oc1ccccc1C2=C1CCNCC1 [Cpd 16, 9-Piperidin-4-ylidene-9H-xanthen-4-ol] |  |  |  |  | 15.1 | 776 nM | 964 |  |  |  |
| NC(=O)c1cccc2c1Sc1ccccc1C2=C1CC2CCC(C1)N2 [Cpd 63, 9-(8-Azabicyclo[3.2.1]oct-3-ylidene)-9H-thioxanthene-4-carboxylic acid amide] |  |  |  |  | 0.71 | 3.31 nM | 2.7 |  |  |  |
| Oc1cccc2c1Oc1ccccc1C2=C1CC2CCC(C1)N2Cc1ccccc1 (single isomer, unassigned) [Cpd 46, 9-(8-Benzyl-8-azabicyclo[3.2.1]oct-3-ylidene)-9H-xanthen-4-ol] |  |  | 10.2 |  | 0.03 | 0.19 nM |  |  |  |  |
| Oc1cccc2c1Oc1ccccc1C2=C1CC2CCC(C1)N2Cc1ccccc1 (single isomer, unassigned) [Cpd 45, 9-(8-Benzyl-8-azabicyclo[3.2.1]oct-3-ylidene)-9H-xanthen-4-ol] |  |  |  |  | 9.62 | 11.4 nM | 1420 |  |  |  |
| O=C(Nc1ccccc1)c1cccc2c1Oc1ccccc1C2=C1CC2CCC(C1)N2 (single isomer, unassigned) [Cpd 48, 9-(8-Azabicyclo[3.2.1]oct-3-ylidene)-9H-xanthene-4-carboxylic acid phenylamide] |  |  | 101 |  | 3.71 | 3.58 nM |  |  |  |  |
| Oc1cccc2c1Oc1ccccc1C2=C1CC2CCC(C1)N2Cc1cccnc1 (single isomer, unassigned) [Cpd 50, 9-(8-Pyridin-3-ylmethyl-8-azabicyclo[3.2.1]oct-3-ylidene)-9H-xanthen-4-ol] |  |  | 218 |  | 0.08 | 0.68 nM |  |  |  |  |
| O=CNc1cccc2c1Oc1ccccc1C2=C1CC2CCC(C1)N2 [Cpd 44, N-[9-(8-Azabicyclo[3.2.1]oct-3-ylidene)-9H-xanthen-4-yl]-formamide] |  |  |  |  | 19.2 | 45.2 nM | 7.03 |  |  |  |
| CNC(=O)c1cccc2c1Oc1ccccc1C2=C1CC2CCC(C1)N2 [Cpd 10, 9-(8-Azabicyclo[3.2.1]oct-3-ylidene)-9H-xanthene-4-carboxylic acid methylamide] |  |  |  |  |  | 27 nM and 51 nM | 617 |  | > 10000 |  |
| Oc1cccc2c1Oc1ccccc1C2=C1CC2CCC(C1)N2Cc1ccoc1 (single isomer, unassigned) [Cpd 58, 9-(8-Furan-3-ylmethyl-8-azabicyclo[3.2.1]oct-3-ylidene)-9H-xanthen-4-ol] |  |  | 2.6 |  | 0.1 | 0.45 nM |  |  |  |  |
| CN1C2CCC1CC(=C1c3ccccc3Oc3c(O)cccc31)C2 (single isomer, unassigned) [Cpd 51, 9-(8-Methyl-8-azabicyclo[3.2.1]oct-3-ylidene)-9H-xanthen-4-ol] |  |  |  |  | 11.2 | 138 nM | 59.2 |  |  |  |
| O=C(NCc1ccccc1)c1cccc2c1Oc1ccccc1C2=C1CC2CCC(C1)N2 [Cpd 13, 9-(8-Azabicyclo[3.2.1]oct-3-ylidene)-9H-xanthene-4-carboxylic acid benzylamide] |  |  |  |  |  | 15 nM and 12.7 nM | 5.68 | 0.87 | 717 | 0.67 |
